Assay results as given in ChEMBL document CHEMBL5131484, “Design and synthesis of adamantane-1-carbonyl thiourea derivatives as potent and selective inhibitors of h-P2X4 and h-P2X7 receptors: An Emerging therapeutic tool for treatment of inflammation and neurological disorders” (Eur J Med Chem, 2022).

Legend:
[1] = target: T1, P2X purinoceptor 7 (Homo sapiens) (UniProt Q99572); experiment: Negative allosteric modulation activity at human P2X7 receptor expressed in human 1321N1 cells assessed as reduction in ethidium bromide dye uptake at 20 uM preincubated for 15 mins followed by BzATP addition and measured after 30 mins by Ethidium bromide dye based fluorescence plate reader analysis relative to control; assay type: cell-based; settings: filed as negative allosteric modulator, time 45.0 min
T1 sequence (whole entry): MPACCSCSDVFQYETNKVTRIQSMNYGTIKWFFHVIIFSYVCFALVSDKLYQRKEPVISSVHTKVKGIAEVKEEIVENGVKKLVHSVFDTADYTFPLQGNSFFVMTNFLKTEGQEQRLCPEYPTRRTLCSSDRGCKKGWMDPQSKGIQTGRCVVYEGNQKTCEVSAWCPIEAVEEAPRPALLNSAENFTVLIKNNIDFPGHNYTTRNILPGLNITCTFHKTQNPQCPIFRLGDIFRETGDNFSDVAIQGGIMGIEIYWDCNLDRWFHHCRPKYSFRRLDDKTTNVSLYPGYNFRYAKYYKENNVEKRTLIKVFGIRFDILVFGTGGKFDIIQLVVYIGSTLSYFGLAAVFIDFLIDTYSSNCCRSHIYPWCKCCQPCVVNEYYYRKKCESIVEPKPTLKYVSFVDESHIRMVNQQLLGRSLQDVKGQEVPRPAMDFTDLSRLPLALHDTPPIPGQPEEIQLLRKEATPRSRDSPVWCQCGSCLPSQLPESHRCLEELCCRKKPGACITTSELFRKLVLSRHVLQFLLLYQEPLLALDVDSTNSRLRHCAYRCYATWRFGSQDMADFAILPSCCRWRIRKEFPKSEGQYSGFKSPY

[2] = target: T2, P2X purinoceptor 4 (Homo sapiens) (UniProt Q99571); experiment: Negative allosteric modulation activity at human P2X4 receptor expressed in human 1321N1 cells assessed as reduction in intracellular Ca2+ influx incubated for 30 mins by Fura-2 AM based fluorescence assay relative to control; assay type: cell-based
T2 sequence (whole entry): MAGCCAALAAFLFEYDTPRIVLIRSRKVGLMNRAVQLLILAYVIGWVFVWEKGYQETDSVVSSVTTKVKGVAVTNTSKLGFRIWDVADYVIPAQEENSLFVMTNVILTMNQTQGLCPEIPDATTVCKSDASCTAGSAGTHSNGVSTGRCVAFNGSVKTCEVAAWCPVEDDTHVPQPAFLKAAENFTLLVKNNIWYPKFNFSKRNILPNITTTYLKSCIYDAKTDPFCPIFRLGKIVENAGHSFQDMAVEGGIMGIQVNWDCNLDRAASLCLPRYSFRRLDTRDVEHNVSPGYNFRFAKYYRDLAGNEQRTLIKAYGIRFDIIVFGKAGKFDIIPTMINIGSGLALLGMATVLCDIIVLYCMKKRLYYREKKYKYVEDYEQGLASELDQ

[3] = target: T1, P2X purinoceptor 7 (Homo sapiens); experiment: Negative allosteric modulation activity at human P2X7 receptor expressed in human 1321N1 cells assessed as ATP induced calcium response by measuring maximal ATP efficacy at 200 nM relative to control; assay type: cell-based
[4] = target: T1, P2X purinoceptor 7 (Homo sapiens); experiment: Negative allosteric modulation activity at human P2X7 receptor expressed in human 1321N1 cells assessed as ATP induced calcium response by measuring maximal ATP efficacy at 100 nM relative to control; assay type: cell-based; settings: filed as negative allosteric modulator
HeLa = experiment: Cytotoxicity against human HeLa cells assessed as reduction in cell viability at 50 uM incubated for 24 hrs by MTT assay relative to control; assay type: functional
P2X purinoceptor 5 [5] = target: T3, P2X purinoceptor 5 (Homo sapiens, UniProt Q93086); experiment: Negative allosteric modulation activity at human P2X5 receptor expressed in human 1321N1 cells assessed as reduction in intracellular Ca2+ influx incubated for 30 mins by Fura-2 AM based fluorescence assay relative to control; assay type: cell-based
T3 sequence (Q93086 whole entry): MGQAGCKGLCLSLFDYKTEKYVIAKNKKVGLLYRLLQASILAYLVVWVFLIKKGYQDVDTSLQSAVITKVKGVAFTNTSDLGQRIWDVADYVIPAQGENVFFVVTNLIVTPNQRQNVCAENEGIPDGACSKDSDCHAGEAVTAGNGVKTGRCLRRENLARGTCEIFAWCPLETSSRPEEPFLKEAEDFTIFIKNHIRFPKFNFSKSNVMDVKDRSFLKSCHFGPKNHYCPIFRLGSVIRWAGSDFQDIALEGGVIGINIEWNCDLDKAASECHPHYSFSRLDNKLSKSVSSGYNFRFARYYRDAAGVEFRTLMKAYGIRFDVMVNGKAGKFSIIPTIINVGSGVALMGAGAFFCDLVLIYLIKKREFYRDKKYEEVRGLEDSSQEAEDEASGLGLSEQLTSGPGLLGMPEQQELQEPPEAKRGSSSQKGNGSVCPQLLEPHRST

[6] = Cytotoxicity against human HEK293 cells assessed as reduction in cell viability at 50 uM incubated for 24 hrs by MTT assay relative to control; assay type: toxicity, cell-based; settings: read-out: INH
P2X purinoceptor 7 [7] = target: T4, P2X purinoceptor 7 (Homo sapiens, UniProt Q99572); experiment: Negative allosteric modulation activity at human P2X7 receptor expressed in human 1321N1 cells assessed as reduction in ethidium bromide dye uptake preincubated for 15 mins followed by BzATP addition and measured after 30 mins by Ethidium bromide dye based fluorescence plate reader analysis; assay type: cell-based
T4 sequence (Q99572 whole entry): T1 sequence (whole entry)

[8] = Cytotoxicity against human 1321N1 cells assessed as reduction in cell viability at 50 uM incubated for 24 hrs by MTT assay relative to control; assay type: functional
[9] = target: T1, P2X purinoceptor 7 (Homo sapiens); experiment: Negative allosteric modulation activity at human P2X7 receptor expressed in human 1321N1 cells assessed as ATP induced calcium response by measuring maximal ATP efficacy at 40 nM relative to control; assay type: cell-based; settings: filed as negative allosteric modulator
[10] = target: T5, P2X purinoceptor 2 (Homo sapiens) (UniProt Q9UBL9); experiment: Negative allosteric modulation activity at human P2X2 receptor expressed in human 1321N1 cells assessed as reduction in intracellular Ca2+ influx incubated for 30 mins by Fura-2 AM based fluorescence assay relative to control; assay type: cell-based
T5 sequence (whole entry): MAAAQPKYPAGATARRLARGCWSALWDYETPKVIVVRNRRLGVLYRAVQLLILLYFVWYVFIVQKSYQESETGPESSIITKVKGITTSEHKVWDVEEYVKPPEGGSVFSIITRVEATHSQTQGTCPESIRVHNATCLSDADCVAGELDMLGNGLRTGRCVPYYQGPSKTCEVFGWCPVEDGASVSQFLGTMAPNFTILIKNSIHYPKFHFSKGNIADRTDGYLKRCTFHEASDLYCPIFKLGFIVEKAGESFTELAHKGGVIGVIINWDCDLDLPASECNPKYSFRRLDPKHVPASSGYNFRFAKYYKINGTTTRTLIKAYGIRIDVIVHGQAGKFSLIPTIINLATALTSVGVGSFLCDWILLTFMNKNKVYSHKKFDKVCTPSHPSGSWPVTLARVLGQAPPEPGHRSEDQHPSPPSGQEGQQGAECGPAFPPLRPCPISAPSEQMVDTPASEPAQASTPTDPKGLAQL

P2X purinoceptor 5 [11] = target: T3, P2X purinoceptor 5; experiment: Antagonist activity at human P2X5 receptor expressed in human 1321N1 cells assessed as reduction in intracellular Ca2+ influx incubated for 30 mins by Fura-2 AM based fluorescence assay relative to control; assay type: cell-based
[12] = target: T1, P2X purinoceptor 7 (Homo sapiens); experiment: Antagonist activity at human P2X7 receptor expressed in human 1321N1 cells assessed as reduction in intracellular Ca2+ influx incubated for 30 mins by Fura-2 AM based fluorescence assay relative to control; assay type: cell-based
[13] = target: T2, P2X purinoceptor 4 (Homo sapiens); experiment: Antagonist activity at human P2X4 receptor expressed in human 1321N1 cells assessed as reduction in intracellular Ca2+ influx incubated for 30 mins by Fura-2 AM based fluorescence assay relative to control; assay type: cell-based
[14] = target: T5, P2X purinoceptor 2 (Homo sapiens); experiment: Antagonist activity at human P2X2 receptor expressed in human 1321N1 cells assessed as reduction in intracellular Ca2+ influx incubated for 30 mins by Fura-2 AM based fluorescence assay relative to control; assay type: cell-based
[15] = target: T1, P2X purinoceptor 7 (Homo sapiens); experiment: Antagonist activity at human P2X7 receptor expressed in human 1321N1 cells assessed as reduction in ethidium bromide dye uptake at 20 uM preincubated for 15 mins followed by BzATP addition and measured after 30 mins by Ethidium bromide dye based fluorescence plate reader analysis relative to control; assay type: cell-based; settings: filed as antagonist, time 45.0 min
P2X purinoceptor 7 [16] = target: T4, P2X purinoceptor 7; experiment: Antagonist activity at human P2X7 receptor expressed in human 1321N1 cells assessed as reduction in ethidium bromide dye uptake preincubated for 15 mins followed by BzATP addition and measured after 30 mins by Ethidium bromide dye based fluorescence plate reader analysis; assay type: cell-based
P2X purinoceptor 4 = target: T6, P2X purinoceptor 4 (Homo sapiens, UniProt Q99571); experiment: Antagonist activity at human P2X4 receptor expressed in human 1321N1 cells assessed as reduction in intracellular Ca2+ influx incubated for 30 mins by Fura-2 AM based fluorescence assay; assay type: cell-based
T6 sequence (Q99571 whole entry): T2 sequence (whole entry)

P2X purinoceptor 7 [17] = target: T4, P2X purinoceptor 7; experiment: Antagonist activity at human P2X7 receptor expressed in human 1321N1 cells assessed as reduction in intracellular Ca2+ influx incubated for 30 mins by Fura-2 AM based fluorescence assay; assay type: cell-based
P2X purinoceptor 5 [18] = target: T3, P2X purinoceptor 5; experiment: Antagonist activity at human P2X5 receptor expressed in human 1321N1 cells assessed as reduction in intracellular Ca2+ influx incubated for 30 mins by Fura-2 AM based fluorescence assay; assay type: cell-based

SMILES	inhibition at 50 µM (HeLa) [%]	cytotoxicity at 24 h, 50 µM [6] [%]	inhibition at 50 µM [8] [%]	inhibition (P2X purinoceptor 5 [11]) [%]	inhibition [12] [%]	inhibition [13] [%]	inhibition [14] [%]	also measured
O=C(NC(=S)Nc1cccc2cccnc12)C12CC3CC(CC(C3)C1)C2	6.22	5.05	9.12					Emax [1]: 42%; inhibition [2]: 25%; Emax [3]: 31%; Emax [4]: 59%; inhibition (P2X purinoceptor 5 [5]): 32%; IC50 (P2X purinoceptor 7 [7]): 0.068 µM; Emax [9]: 78%; inhibition [10]: 15%
COc1ccc(NC(=S)NC(=O)C23CC4CC(CC(C4)C2)C3)cc1	8.01	10.6	4.56	25	0	32		
O=C(NC(=S)Nc1ccc(O)cc1)C12CC3CC(CC(C3)C1)C2	8.66	3.02	7.21	26		33	38	Emax [15]: 68%; IC50 (P2X purinoceptor 7 [16]): 1.26 µM
O=C(NC(=S)Nc1cc(Br)cc(C(F)(F)F)c1)C12CC3CC(CC(C3)C1)C2	11.9	6.85	5.37	20			5	IC50 (P2X purinoceptor 4): 4.53 µM; IC50 (P2X purinoceptor 7 [17]): 4.02 µM
O=C(NC(=S)Nc1cc(Cl)c(O)c(Cl)c1)C12CC3CC(CC(C3)C1)C2	5.4	1.06	6.18					IC50 (P2X purinoceptor 5 [18]): 12.3 µM
Cc1ccc(NC(=S)NC(=O)C23CC4CC(CC(C4)C2)C3)c(Br)c1	15.4	9.46	7.29					IC50 (P2X purinoceptor 5 [18]): 9.04 µM
COc1ccc(NC(=S)NC(=O)C23CC4CC(CC(C4)C2)C3)cc1OC	14.3	7.2	13.5					IC50 (P2X purinoceptor 5 [18]): 16.5 µM
CC(C)c1cc(Br)c(NC(=O)Nc2cccnc2)c(Br)c1	9.12	2.85	20.2					
O=C(NC(=S)Nc1cc([N+](=O)[O-])ccc1Cl)C12CC3CC(CC(C3)C1)C2	8.66	6.31	10.4	32				
CN(C)CCCNC(=S)NC(=O)C12CC3CC(CC(C3)C1)C2	7.21	10.4	5.45	5	10	0	2	
Cc1cc(Br)ccc1NC(=S)NC(=O)C12CC3CC(CC(C3)C1)C2	4.1	7.02	2.2	16	18	35	22	
COc1cccc(NC(=S)NC(=O)C23CC4CC(CC(C4)C2)C3)c1	7.21	13.2	6.53		15	38		inhibition (P2X purinoceptor 5 [11]; filed as antagonist): 45%
O=C(NC(=S)Nc1cccnc1Cl)C12CC3CC(CC(C3)C1)C2	5.21	4.95	11.4	25			13	Emax [15]: 63%; IC50 (P2X purinoceptor 7 [16]): 0.155 µM
Cc1ccc(C(=O)Nc2ccc(S(=O)(=O)O)c3cc(S(=O)(=O)O)cc(S(=O)(=O)O)c23)cc1NC(=O)c1cccc(NC(=O)Nc2cccc(C(=O)Nc3cc(C(=O)Nc4ccc(S(=O)(=O)O)c5cc(S(=O)(=O)O)cc(S(=O)(=O)O)c45)ccc3C)c2)c1 [SURAMIN]	28.7	48	30.6					
O=C(NC(=S)Nc1ccc(Br)cc1)C12CC3CC(CC(C3)C1)C2	7.19	13.7	5.4			21	35	inhibition (P2X purinoceptor 5 [11]; filed as antagonist): 42%
O=C(NC(=S)Nc1cc(Br)ccc1Br)C12CC3CC(CC(C3)C1)C2	4.15	10.7	7.43	16	11			inhibition ([14]; filed as antagonist): 41%; IC50 (P2X purinoceptor 4): 8.34 µM
O=C(O)C12CC3CC(CC(C3)C1)C2				15	11	20	12	
O=C(NC(=S)Nc1ccccc1O)C12CC3CC(CC(C3)C1)C2	8.6	4.22	10.3				33	inhibition (P2X purinoceptor 5 [11]; filed as antagonist): 41%
O=C(NC(=S)Nc1cccc(O)c1)C12CC3CC(CC(C3)C1)C2	11	6.95	5.67		19	36	33	inhibition (P2X purinoceptor 5 [11]; filed as antagonist): 44%
NS(=O)(=O)c1ccccc1NC(=S)NC(=O)C12CC3CC(CC(C3)C1)C2	9.5	3.77	12.9				18	Emax [15]: 58%; inhibition (P2X purinoceptor 5 [11]; filed as antagonist): 43%; IC50 (P2X purinoceptor 4): 4.19 µM; IC50 (P2X purinoceptor 7 [16]): 0.796 µM; IC50 (P2X purinoceptor 7 [17]): 0.699 µM
